According to patent US9060966B2, “Use of 2,5-dihydroxybenzene derivatives for the treatment of arthritis and pain” (priority 2006, dated 2015):
“Also recorded” adds a separate entry of the source.

Key:
[1] = target: T1, fibroblast growth factor-1 (FGF-1) (Homo sapiens, UniProt P05230); test: Co-crystallisation with FGF-1 (crystal diffraction of complexes); type: binding
Excerpt: (§1) FIG. 24. 2-acetoxy-5-hydroxybenzenesulfonic acid co-crystallized with fibroblast growth factor-1. […] The compound occupies a place that is very close to that described occupied by 2,5-dihydroxybenzenesulfonic acid, the aromatic ring of which forms a cation-σ bond with the N^ε group of lysine 132, which is marked in panel A as reference. […] In panels A and B, the protein surface is colored according to its electrostatic potential (light grey: negative charge; dark grey: positive charge; white: lack of charge).
as §1, with “25. 5-acetoxy-2-hydroxybenzenesulfonic” for “24. 2-acetoxy-5-hydroxybenzenesulfonic”, “cation-π” for “cation-σ”
as §1, with “26. 2,5-diacetoxybenzenesulfonic” for “24. 2-acetoxy-5-hydroxybenzenesulfonic”, “cation-π” for “cation-σ”
Based on the crystal diffraction of the FGF-1:2-acetoxy-5-hydroxybenzene sulfonic acid, FGF-1:5-acetoxy-2-hydroxybenzene sulfonic acid and FGF-1:2,5-diacetoxybenzene sulfonic acid complexes, the structures of the complexes were calculated and represented. FIGS. 24, 25 and 26, which show the surface of the dyed protein according to its electrostatic potential (light grey: negative charge; dark grey: positive charge; white: lack of charge), show the manner in which 2-acetoxy-5-hydroxybenzene sulfonic acid, 5-acetoxy-2-hydroxybenzene sulfonic acid and 2,5-diacetoxybenzene sulfonic acid interact, respectively, with FGF-1.

[2] = system: methacholine induced bronchoconstriction in OVA-sensitized mice; test: Experimentally induced (OVA) asthma in mice: methacholine bronchoconstriction and BAL cell count; type: in vivo; conditions: for methacholine induced bronchoconstriction (Penh): methacholine 5 and 20 mg/mL
Experimental: Effect of potassium 2,5-diacetoxybenzene sulfonate (DABS) on bronchoconstriction in asthmatic mice treated with methacholine. All the mice were exposed to nebulized methacholine (MC; 5 and 20 mg/ml). Bronchoconstriction was determined as the enhanced pause. (Penh), calculated as described in the corresponding example (example 13).
Effect of potassium 2,5-diacetoxybenzene sulfonate (DABS) on the inflammatory cell count in the bronchoalveolar lavage (BAL) in asthmatic mice.
6-9 week old Balb/c mice were used. The ovoalbumin (OVA)/aluminum complex was obtained after dissolving OVA (500 μg/mL) in PBS, and mixing it with an equal volume of 10% aluminum potassium sulfate at pH 6.5 for 1 hour. After centrifuging the pellet (750×g for 5 minutes) the OVA/aluminum pellet was resuspended in distilled water. On day 0, the mice were injected intraperitoneally injected with 100 μg of OVA/aluminum. Eight days later, the mice were anesthetized and exposed to 250 μg of OVA. Later, they were administered 125 μg of OVA on days 15, 18 and 21. […].
The following treatments were administered to the animals: (i.p.) vehicle from day 2, potassium 2,5-diacetoxybencene sulfonate (DABS; 100 mg/kg/day, i.p.) from day 2, DABS (100 mg/kg/day, i.p.) from day 8 and Combivent (20 μg/200 μg in aerosol) on days 20, 21 and 22, the latter as a reference treatment.
In order to evaluate the pulmonary function, the response to methacholine in conscious mice was determined, 24 hours after the last exposure to OVA. The mice were exposed to increasing methacholine concentrations (5 and 20 mg/mL) in the form of aerosol using an ultrasonic nebulizer during 2 minutes. The degree of bronchoconstriction was expressed as the enhanced pause (Penh) which correlates to the mouse air resistance, impedance and pressure within the pleura. The Penh enh was calculated using the formula Penh=[([…]/Rt−1)×(PEF/PIF)], where Te is expiratory time, Rt is relaxation time, PEF is peak expiratory flow and PIF is peak inspiratory flow x 0.67 coefficient.
After measuring airway hyperreactivity, the mice were sacrificed and the bronchoalveolar lavage (BAL) of the right lung was collected. The total number of cells in the BAL fluid was determined.

[3] = target: T1, fibroblast growth factor-1 (FGF-1); test: Inhibition of fibroblast mitogenesis induced by FGF-1 in Balb/c 3T3 fibroblasts; type: cell-based; design: host or cells: added to Balb/c 3T3 fibroblasts (mouse); conditions: quiescent Balb/c 3T3 cultures; potassium salts, except 2-acetoxy-5-hydroxybenzene sulfonate as calcium salt
Experimental: The evaluated compounds were used in the form of potassium salt, except in the first case in which calcium salt was used. The experiments were carried out as described in Fernandez-Tornero C et al. J Biol Chem, 2003.

[4] = system: angiogenesis induced by Helicobacter pylori in the human gastric mucosa; test: Angiogenesis induced by Helicobacter pylori in the human gastric mucosa (biopsies); type: in vivo; conditions: 500 mg/day oral, one week, one patient
Experimental: FIG. 5. Helicobacter pylori • A) Hematoxylin-eosin staining of the gastric mucosa of a sample obtained from a patient infected with Helicobacter pylori before treatment. The arrows and the asterisk indicate the formation of neovessels in the mucosa protruding the gastric lumen through the lost epithelial layer. • B) Hematoxylin-eosin staining of the gastric mucosa of a sample obtained from the same patient infected with Helicobacter pylori after administering 500 mg of 2,5-dihydroxybenzenesulfonate (DHBS) daily for a week.
A biopsy of the gastric mucosa was performed in a patient chronically infected with Helicobacter pylori before the oral treatment with 2,5-dihydroxybenzene sulfonic acid (Dobesilate) (500 mg/day). After a week of treatment, another biopsy was performed in the patient. Both biopsies were evaluated using hematoxylin-eosin staining. […] Microscopically, the arrows and the asterisk indicate the formation of neovessels in the mucosa protruding the gastric lumen through the lost epithelial layer. […] This example illustrates that the use of DHBS is beneficial in the treatment of gastritis and angiogenesis caused by the infection with Helicobacter pylori.

infantile hemangioma = test: Topical treatment of infantile hemangioma in a child; type: in vivo, human; conditions: cream 2.5%, topical twice a day, 1, 2 and 3 months, one child
Excerpt: Photographs of a child showing the effects of the topical treatment with a cream comprising 2,5-dihydroxybenzenesulfonic (DHBS) (2.5%) in a baby suffering infantile hemangioma.
The cream comprising 2,5-dihydroxybenzene sulfonic (2.5%) was topically applied twice a day for 3 months on the face of a child suffering from infantile hemangioma.

T1 sequence (P05230 whole entry, species assumed): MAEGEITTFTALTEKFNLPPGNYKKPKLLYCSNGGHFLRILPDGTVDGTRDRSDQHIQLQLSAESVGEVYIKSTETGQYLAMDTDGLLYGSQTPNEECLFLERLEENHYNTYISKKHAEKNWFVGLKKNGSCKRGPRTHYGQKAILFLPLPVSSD

| Structure (SMILES) | acetoxyl groups of the compound when bound to the protein ([1]; electron density contoured at 1σ) | binding site on FGF-1 in the crystal complex ([1]; reference: site of 2,5-dihydroxybenzene sulfonic acid, lysine 132) | reduction of BAL cells compared with Combivent ([2]; 100 mg/kg/day i.p.) | methacholine induced bronchoconstriction (Penh) ([2]; 100 mg/kg/day i.p. from day 2) | methacholine induced bronchoconstriction (Penh) ([2]; 100 mg/kg/day i.p. from day 8) | presence of cells in bronchoalveolar lavage (BAL) ([2]; 100 mg/kg/day i.p., from day 2 or day 8) | increase of Penh after exposure to methacholine vs saline ([2]; DABS groups, 100 mg/kg/day i.p.) | FGF-1 induced mitogenesis [3] | angiogenic activity in the gastric mucosa [4] | appearance of gastric mucosa / epithelial membrane, hematoxylin-eosin [4] | symptoms of congestion and erythema of the gastric mucosa [4] | hemangioma lesion appearance (infantile hemangioma) |
| --- | --- | --- | --- | --- | --- | --- | --- | --- | --- | --- | --- | --- |
| CC(=O)Oc1ccc(OC(C)=O)c(S(=O)(=O)[O-])c1.[K+] [DABS, potassium 2,5-diacetoxybenzene sulfonate] | conserve the acetoxyl groups | a site that is very close to the one that has been described occupied by 2,5-dihydroxybenzene sulfonic acid | even more than the treatment with Combivent | completely prevented | completely prevented | significantly reduced | do not show a significant increase | Inhibition |  |  |  |  |
| O=S(=O)(O)c1cc(O)ccc1O [DHBS, 2,5-dihydroxybenzenesulfonic acid] |  |  |  |  |  |  |  |  | less angiogenic activity | apparently normal; also recorded: normal appearance | the symptoms of congestion and erythema disappear | substantial recovery of the lesion |
